Measurements published in patent US20250205158A1, “BIODEGRADABLE LIPIDS AND FORMULATIONS FOR DELIVERY OF MRNA” (Massachusetts Institute of Technology, priority 2023, published 2025).
Read-outs that look alike come from different tables or passages of the source.

Key:
[1] = tested on: mice; experiment: tdTomato mRNA LNP expression in muscle and local draining lymph node (flow cytometry, IHC)
[2] = tested on: liver; experiment: fLuc mRNA LNP protein expression after intravenous injection; format: in vivo; conditions: 0.25 mg/kg dose, 6 hrs.
Experimental: Evaluation of the LNPs via intravenous injection. The lipids were initially evaluated for intravenous protein expression by administration of a 0.25 mg/kg dose […] of fLuc mRNA LNPs.

[3] = in vivo; conditions: C57BL/6, mouse, im
[4] = tested on: influenza A/Tasmania/503/2020 virus; experiment: Hemagglutination inhibition (HAI) assay, neutralizing antibody titers after HA mRNA vaccination; format: in vivo, BALB/cJ mice
Experimental: To test this, a dose-response vaccination experiment ranging from […] was performed in female BALB/cJ mice. Neutralizing antibody titers were evaluated using the hemagglutination inhibition (HAI) assay. HAI titers are strongly correlated with vaccine protection and the assay is an FDA approved method for testing influenza vaccine efficacy^38,39 In agreement with the binding antibody titers, higher neutralizing […] were measured across all three tested doses: SM-102 only gave detectable neutralizing immunity at a 1 μg dose, while AMG1541 gave neutralizing immunity with as little was 10 ng of mRNA (FIG. 13H). Not only was AMG1541 able to generate neutralizing immunity at a very low dose, the binding and neutralizing antibody titers were equivalent in mice vaccinated with AMG1541 at a […] as those with SM-102 at a […] (FIG. 13H).
HAI Assay. HAI assays were performed by IBT bioservices. Viral titers were standardized by defining one HA unit as the amount of inactivated influenza A/Tasmania/503/2020 virus required to completely hemagglutinate an equal volume of 1% turkey red blood cells (TRBCs) (Lampire). Serum was heat inactivated at 56° C. then receptor destroying enzyme (RDE) (DENKA) was added to the serum and incubated at 37° C. for 20 hrs. RDE was then deactivated at 56° C. for 60 mins. Serum samples were then serially diluted in DPBS and 25 μL of diluted serum was added to a 96-well V bottom plate. Subsequently, four HA units of inactivated virus in 25 μL of DPBS were added to the diluted serum and incubated for 30 mins. at RT. 50 μL of a 1% (4×10^7 cells/mL) solution of turkey red blood cells (Lampire) was then added to the serum and virus mixture.

[5] = 31P NMR membrane fusion study; format: physicochemical; conditions: acidic pH
Experimental: Structural features of AMG lipids that facilitate mRNA delivery. The factors contributing to lipid potency were evaluated. The ionization properties of AMG1541 LNPs were investigated using a previously established 6-(p-toluidino)-2-napthalenesulfonic acid (TNS) assay.^22 The pKa of AMG LNPs showing higher in vivo mRNA transfection than SM-102 ranged between pH 6.4-6.7. […] In addition to endosomal buffering, it is hypothesized that the protonated ionizable lipids within the acidic endosome bind with anionic phospholipids within the endosomal membrane, destabilizing the membrane's bilayer and promoting endosomal pore formation.^17,52 The membrane fusion properties of the ionizable lipids was evaluated via ^31P NMR. When bilayer forming DPPS vesicles were mixed with equimolar AMG lipid under acidic conditions, a bilayer to hexagonal phase transition was observed, indicating their membrane-destabilizing nature (FIG. 15D).

[6] = tested on: mice; experiment: Germinal center response after HA mRNA LNP prime dose; format: in vivo, BALB/cJ mice; conditions: LDLN 8 days following a prime dose
[7] = tested on: mice; format: in vivo, BALB/cJ and C57B1/6J mice; conditions: HA mRNA, dose=1 μg, day 35
[8] = muscle, female BALB/cJ mice, IM

With CCCCCC/C=C\CCCC(=O)OCC(O)CN1CCN(CC(O)COC(=O)CCC/C=C\CCCCCC)CCN(CC(O)COC(=O)CCC/C=C\CCCCCC)CCN(CC(O)COC(=O)CCC/C=C\CCCCCC)CCN(CC(O)COC(=O)CCC/C=C\CCCCCC)CCN(CC(O)COC(=O)CCC/C=C\CCCCCC)CC1 (stereo not drawn) [AMG1541] the “expression in muscle fibers (IHC)” value ([1]; after IM administration) was “tdTomato was expressed in the muscle fibers”, the “protein expression in the LDLN relative to SM-102” value ([1]; female BALB/cJ mice, IM) was “significantly higher protein expression in APCs” and the “fold higher tdTomato expression in DCs than SM-102” value [1, 8] was 3.8 fold. The “fold higher tdTomato expression in monocytes than SM-102” value [1, 8] was 22 fold, the “protein expression after intravenous fLuc mRNA LNPs” value [2] was “comparable levels of protein expression to lipid MD-1” and the half-life [3] was 3 h. The “fold higher neutralizing titers than SM-102” value ([4]; equivalent vaccine dose) was 13 fold, the “lowest mRNA dose giving neutralizing immunity” value ([4]; female BALB/cJ mice, dose-response vaccination) was 10 ng and the “fold lower dose giving similar protective immunity to SM-102” value ([4]; mouse, in vivo) was 100 fold. For the same molecule, the “31P NMR phase behaviour” value [5] was “bilayer membrane to hexagonal HII transformation”, the “fold higher Ag+ GC B cells than SM-102 treated mice” value [6] was 6.0 fold and the “fold more Fas+GL7+ GC B cells than SM-102 treated mice” value [6] was 4.8 fold. The “fold higher binding antibody endpoint titers than SM-102” value ([7]; female BALB/cJ mice) was 6.8 fold, the “fold higher binding antibody titers than SM-102” value ([7]; female C57B1/6J mice) was 5.8 fold and the “fold higher binding antibody endpoint titers than SM-102” value ([7]; male BALB/cJ mice) was 15.8 fold.
